According to patent publication US6215002A, “Pyrrolopyrrolone derivatives as inhibitors of neutrophil elastase” (priority 1996, dated 2001):
Where a name gives a salt, the structure may show the parent alone.

Each molecule was assayed against T1, human neutrophil elastase (Homo sapiens, UniProt P08246) (assay: In vitro assay of human neutrophil elastase (HNE)). Settings: 118 nM purified human neutrophil elastase, pH 8.6, 15 min incubation at 30° C., MeO-succinyl-alanyl-alanyl-prolyl-valyl-p-nitroanilide substrate; read-out: HNE IC50.
T1 sequence (P08246 30-267): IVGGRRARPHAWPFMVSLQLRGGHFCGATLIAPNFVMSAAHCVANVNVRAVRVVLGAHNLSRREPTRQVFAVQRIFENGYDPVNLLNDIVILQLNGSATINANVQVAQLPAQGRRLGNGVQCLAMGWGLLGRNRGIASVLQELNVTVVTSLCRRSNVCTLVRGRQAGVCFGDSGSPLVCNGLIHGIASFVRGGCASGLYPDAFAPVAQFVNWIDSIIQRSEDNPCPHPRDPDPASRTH
Type: biochemical
In short: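 Residual activity was taken as the 10 min rate of absorbance rise at 405 nm after adding 0.6 mM MeO-succinyl-AAPV-p-nitroanilide. Curve fitting of activity against concentration gave IC50.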
With CCC[C@H]1C(=O)N(S(C)(=O)=O)[C@H]2CCN(C(=O)/C=C/C(=O)N3CCN(C)CC3)[C@H]12 (relative stereo) [Example 130, rel-(3R,3aR,6aS)-1-(4-Methanesulfonyl-5-oxo-6-propyl-hexahydro-pyrrolo[3,2-b]pyrrol-1-yl)-4-(4-methyl-piperazin-1-yl)-but-2E-ene-1,4-dione hydrochloride] the IC50 was 47 nM. Molecule CCC[C@H]1C(=O)N(S(=O)(=O)c2ccc(C(F)(F)F)cc2)[C@H]2CCN(C(=O)CCCCCN3CCCCC3)[C@H]12 (relative stereo) [Example 202, rel-(3R,3aR,6aS)-4-(6-Piperidin-1-yl-hexanoyl)-3-propyl-1-(4-trifluoromethyl-benzenesulfonyl)-hexahydro-pyrrolo[3,2-b]pyrrol-2-one DL-tartrate] has an IC50 of 38 nM. CCC[C@H]1C(=O)N(S(C)(=O)=O)[C@H]2CCN(S(=O)(=O)c3ccc(C(=O)NCCN(C)C)cc3)[C@H]12 (relative stereo) [Example 123, rel-N-(2-Dimethylamino-ethyl)-4-(4-methanesulfonyl-5-oxo-6R-propyl-hexahydro-(3aS,6aR)-pyrrolo[3,2-b]pyrrole-1-sulfonyl)-benzamide hydrochloride] was tested, and the IC50 was 14 nM. CCC[C@H]1C(=O)N(S(C)(=O)=O)[C@H]2CCN(C(=O)CCN(C)C)[C@H]12 (relative stereo) [Example 90, rel-(3R,3aR,6aS)-4-(3-Dimethylamino-propionyl)-1-methanesulfonyl-3-propyl-hexahydro-pyrrolo[3,2-b]pyrrol-2-one hydrochloride] was tested, and the IC50 was 305 nM. CCC[C@H]1C(=O)N(S(C)(=O)=O)[C@H]2CCN(C(=O)CCN3CCC(C(N)=O)CC3)[C@H]12 (relative stereo) [Example 98, rel-(3R,3aR,6aS)-1-[3-(4-Methanesulfonyl-5-oxo-6-propyl-hexahydro-pyrrolo[3,2-b]pyrrol-1-yl)-3-oxo-propyl]-piperidine-4-carboxylic acid amide hydrochloride] showed an IC50 of 159 nM. CCC[C@H]1C(=O)N(S(C)(=O)=O)[C@H]2CCN(S(=O)(=O)CCCN3CCOCC3)[C@H]12 (relative stereo) [Example 8, rel-(3R,3aR,6aS)-1-Methanesulfonyl-4-(3-morpholin-4-yl-propane-1-sulfonyl)-3-propyl-hexahydro-pyrrolo[3,2-b]pyrrol-2-one] was tested, and the IC50 was 29 nM. CCC[C@H]1C(=O)N(S(C)(=O)=O)[C@H]2CCN(C(=O)CCN3CCN(C)CC3)[C@H]12 (relative stereo) [Example 94, rel-(3R,3aR,6aS)-1-Methanesulfonyl-4-[3-(4-methyl-piperazin-1-yl)-propionyl]-3-propyl-hexahydro-pyrrolo[3,2-b]pyrrol-2-one dihydrochloride] gave an IC50 of 81 nM. In the case of CC(C)[C@H]1C(=O)N(S(C)(=O)=O)[C@H]2CCN(C(=O)CCCC3CCN(C)CC3)[C@H]12 (relative stereo) [Example 256, rel-(3R,3aR,6aS)-3-Isopropyl-1-methanesulfonyl-4-[4-(1-methyl-piperidin-4-yl)-butyryl]-hexahydro-pyrrolo[3,2-b]pyrrol-2-one hydrochloride], the IC50 is reported as 78 nM. CCC[C@H]1C(=O)N(S(C)(=O)=O)[C@H]2CCN(C(=O)c3ccc(NC(C)=O)nc3)[C@H]12 (relative stereo) [Example 241, rel-N-[5-(4-Methanesulfonyl-5-oxo-6R-propyl-hexahydro(3aS,6aR)-pyrrolo[3,2-b]pyrrole-1-carbonyl)-pyridin-2-yl]-acetamide] showed an IC50 of 22 nM. For CCC[C@H]1C(=O)N(S(=O)(=O)c2ccc3ccccc3c2)[C@H]2CCN(C(=O)CCCN3CCCCC3)[C@H]12 (relative stereo) [Example 39, rel-(3R,3aR,6aS)-1-(Naphthalene-2-sulfonyl)-4-(4-piperidin-l-yl-butyryl)-3-propyl-hexahydro-pyrrolo[3,2-b]pyrrol-2-one tartrate], the IC50 was 189 nM. CCC[C@H]1C(=O)N(S(C)(=O)=O)[C@H]2CCN(S(=O)(=O)c3cccc([N+](=O)[O-])c3)[C@H]12 (relative stereo) [Example 222, rel-(3R,3aR,6aS)-1-Methanesulfonyl-4-(3-nitro-benzenesulfonyl)-3-propyl-hexahydro-pyrrolo[3,2-b]pyrrol-2-one] showed an IC50 of 107 nM. CCC[C@H]1C(=O)N(S(C)(=O)=O)[C@H]2CCN(S(=O)(=O)c3ccc(C(=O)O)cc3)[C@@H]12 (relative stereo) [Example 122, rel-(3aS,6R,6aS)-4-(4-Methanesulfonyl-5-oxo-6-propyl-hexahydro-pyrrolo[3,2-b]pyrrole-1-sulfonyl)-benzoic acid] was tested, and the IC50 was 4 nM. With CCC[C@H]1C(=O)N(S(C)(=O)=O)[C@H]2CCN(C(=O)c3ccc[nH]3)[C@H]12 (relative stereo) [Example 242, rel-(3R,3aR,6aS)-1-Methanesulfonyl-3-propyl-4-(1H-pyrrole-2-carbonyl)-hexahydro-pyrrolo[3,2-b]pyrrol-2-one] the IC50 was 22 nM. In the case of CCC[C@H]1C(=O)N(S(=O)(=O)CCC)[C@H]2CCN(C(=O)CCN3CCCCC3)[C@H]12 (relative stereo) [Example 162, rel-(3R,3aR,6aS)-4-(3-Piperidin-1-yl-propionyl)-1-(propane-1-sulfonyl)-3-propyl-hexahydro-pyrrolo[3,2-b]pyrrol-2-one DL-tartrate], the IC50 is reported as 62 nM. Work on CCC[C@H]1C(=O)N(S(C)(=O)=O)[C@H]2CCN(S(=O)(=O)CCCN3CCCCC3)[C@H]12 (relative stereo) [Example 9, rel-(3R,3aR,6aS)-1-Methanesulfonyl-4-(3-piperidin-1-yl-propane-1-sulfonyl)-3-propyl-hexahydro-pyrrolo[3,2-b]pyrrol-2-one] yielded an IC50 of 54 nM. For CCC[C@H]1C(=O)N(S(=O)(=O)c2ccc3ccccc3c2)[C@H]2CCN(S(=O)(=O)CCCN3CCOCC3)[C@H]12 (relative stereo) [Example 12, rel-(3R,3aR,6aS)-4-(3-Morpholin-4-yl-propane-1-sulfonyl)-1-(naphthalene-2-sulfonyl)-3-propyl-hexahydro-pyrrolo[3,2-b]pyrrol-2-one], the IC50 was 60 nM. CCC[C@H]1C(=O)N(S(=O)(=O)c2ccc3ccccc3c2)[C@H]2CCN(S(=O)(=O)CCCCN3CCOCC3)[C@H]12 (relative stereo) [Example 11, rel-(3R,3aR,6aS)-4-(4-Morpholin-4-yl-butane-1-sulfonyl)-1-(naphthalene-2-sulfonyl)-3-propyl-hexahydro-pyrrolo[3,2-b]pyrrol-2-one] gave an IC50 of 111 nM. Work on CC(C)[C@H]1C(=O)N(S(C)(=O)=O)[C@H]2CCN(S(=O)(=O)c3ccc(S(C)(=O)=O)cc3)[C@H]12 (relative stereo) [Example 227, rel-(3R,3aR,6aS)-3-Isopropyl-1-methanesulfonyl-4-(4-methanesulfonyl-benzenesulfonyl)-hexahydro-pyrrolo[3,2-b]pyrrol-2-one] yielded an IC50 of 118 nM. In the case of CCC[C@H]1C(=O)N(S(C)(=O)=O)[C@H]2CCN(C(=O)CN3CCCCC3)[C@H]12 (relative stereo) [Example 100, rel-(3R,3aR,6aS)-1-Methanesulfonyl-4-(piperidin-1-yl-acetyl)-3-propyl-hexahydro-pyrrol[3,2-b]pyrrol-2-one hydrochloride], the IC50 is reported as 650 nM. CCC[C@H]1C(=O)N(S(C)(=O)=O)[C@H]2CCN(C(=O)c3ccc(S(C)(=O)=O)cc3)[C@H]12 (relative stereo) [Example 245, rel-(3R,3aR,6aS)-1-Methanesulfonyl-4-(4-methanesulfonyl-benzoyl)-3-propyl-hexahydro-pyrrolo[3,2-b]pyrrol-2-one] showed an IC50 of 9 nM. Molecule CCC[C@H]1C(=O)N(S(C)(=O)=O)[C@H]2CCN(C(=O)c3cccs3)[C@H]12 (relative stereo) [Example 232, rel-(3R,3aR,6aS)-1-Methanesulfonyl-3-propyl-4-(thiophene-2-carbonyl)-hexahydro-pyrrolo[3,2-b]pyrrol-2-one] has an IC50 of 78 nM. Molecule CCC[C@H]1C(=O)N(S(C)(=O)=O)[C@H]2CCN(C(=O)C3CCCN3C)[C@H]12 (relative stereo) [Example 111, rel-(3R,3aR,6aS)-1-Methanesulfonyl-4-(1-methyl-pyrrolidine-2-carbonyl)-3-propyl-hexahydro-pyrrolo[3,2-b]pyrrol-2-one] has an IC50 of 580 nM. CCC[C@H]1C(=O)N(S(C)(=O)=O)[C@H]2CCN(C(C)=O)[C@H]12 (relative stereo) [Example 28, rel-(3R,3aR,6aS)-4-Acetyl-1-methanesulfonyl-3-propyl-hexahydro-pyrrolo[3,2-b]pyrrol-2-one] gave an IC50 of 64 nM. Work on CCCCS(=O)(=O)N1C(=O)[C@H](CCC)[C@@H]2[C@@H]1CCN2C(=O)CCN1CCCCC1 (relative stereo) [Example 163, rel-(3R,3aR,6aS)-1-(Butane-1-sulfonyl)-4-(3-piperidin-1-yl-propionyl)-3-propyl-hexahydro-pyrrolo[3,2-b]pyrrol-2-one DL-tartrate] yielded an IC50 of 103 nM. For CCC[C@H]1C(=O)N(S(C)(=O)=O)[C@H]2CCN(C(=O)CCCN3CCCC3)[C@H]12 (relative stereo) [Example 89, rel-(3R,3aR,6aS)-1-Methanesulfonyl-3-propyl-4-(4-pyrrolidin-1-yl-butyryl)-hexahydro-pyrrolo[3,2-b]pyrrol-2-one hydrochloride], the IC50 was 183 nM. Work on CCC[C@H]1C(=O)N(S(=O)(=O)CC)[C@H]2CCN(S(=O)(=O)CCCN3CCCCC3)[C@H]12 (relative stereo) [Example 165, rel-(3R,3aR,6aS)-1-Ethanesulfonyl-4-(3-piperidin-1-yl-propane-1-sulfonyl)-3-propyl-hexahydro-pyrrolo[3,2-b]pyrrol-2-one DL-tartrate] yielded an IC50 of 86 nM.
